Assay results from patent publication US12478680B2, “Hydrogels with biodegradable crosslinking” (ProLynx LLC, priority 2011, dated 2025).

Details: pH 7.4

Substance | t1/2 for release into solution
carbonic anhydrase | 24 min
myoglobin | ~20 min
